Ten compounds from patent US9895346B2, “Applications of substituent benzyloxy group containing ether compounds for preparing antitumor drugs” (Sinochem Corporation, priority 2013, dated 2018) can be followed below.

Structures are written as SMILES.

Test [1] concerns lung cancer cell line H460. Nature of the test: In vitro cell inhibition assay (crystal violet), lung cancer H460. In kind it is cell-based, human. The text has this:
(§1) In vitro Cell inhibition assay is as follows:
(§2) The human cancer cell lines used for this assay were bladder cancer J82, T24, prostate cancer LNCap, PC-3, lung cancer A549, H157, H460, H520, colon cancer HCT8, HCT116, RkO, and leukemia HL-60, etc.
(§3) In vitro cell culture technology was selected for the determination of inhibition rate bladder cancer cell lines J82 and T24, prostate cancer cell lines LNCap and PC-3, lung cancer cell lines A549, H157, H460 and H520. 1000 to 3000 cells were inoculated to 24-well plate, followed by addition of 1 mL culture medium well known to researchers in this field to each well, the cells were cultured in 5% incubator for 24 hours at 37° C., then the different concentration compounds and controls were added to each well. It should be noted that the added volume is not more than 0.5% of total volume. After completion of addition, the cells continued being cultured in incubator for one week, the culture medium was removed and washed by cold PBS of 1 mL once, and then fixed for 10 minutes at room temperature with 1% formalin, followed by wash with PBS of 1 mL. After fixation, stain was carried out with 0.1% crystal violet for 30 minutes. 0.1% crystal violet was recycled. The stained cells were washed gently with deionized water, dried at room temperature and kepted. The inhibition rate was calculated according to the foiling equation. The controls are Selumetinib (AZD6244), Gefitinib, Cisplatin. Inhibition rate=number of left cells each treatment/number of left cells of untreated control×100%

The subject of test [2] is human leukemia HL-60 cells. Nature of the test: Proliferation inhibition of human leukemia HL-60 cells, MTT method. In kind it is cell-based. Conditions: 48 h incubation, OPTI-MEM medium. The method, then: The inhibition rate of human leukemia HL-60 cells was evaluated by regular MTT method. The human leukemia HL-60 cells were picked up from cell incubator, after washed for twice using PBS, cells were digested by 0.25% trypsin, and then add medium to terminate the digestion. After cells were collected using centrifuge and re-suspended, counting cells under inverted microscope and adding medium to make a density which was 5×10^4 cells/mL. After 100 μL aliquots were added to each well of 96-well microtiter plates, cells were cultured in 5% incubator for overnight at 37° C., then the different concentration compounds were added to each well. After incubation for 48 h, MTT solution was added to each well and plates were then incubated for 4 h. The MTT tetrazolium was reduced to formazan by living cells. Then the formazan crystals were dissolved though adding DMSO to each well. The absorbance was read at 570 nm with a microplate reader.

Test [3] deals with lung cancer cell line A549. Nature of the test: In vitro cell inhibition assay (crystal violet), lung cancer A549. It is filed as cell-based, human.
Description: as §1, §2, §3

Test [4] concerns lung cancer cell line H520. The test can be described thus: In vitro cell inhibition assay (crystal violet), lung cancer H520. In kind it is cell-based, human.
Description: as §1, §2, §3

For a further test, the system named is colon cancer HCT8. Nature of the test: In vitro cell inhibition assay, colon cancer HCT8. It is filed as cell-based, human.
Description: as §1, §2

The subject of another test is colon cancer HCT116. Nature of the test: In vitro cell inhibition assay, colon cancer HCT116. In kind it is cell-based, human.
Description: as §1, §2

A further test relates to colon cancer RkO. Nature of the test: In vitro cell inhibition assay, colon cancer RkO. It is filed as cell-based, human.
Description: as §1, §2

The subject of test [5] is bladder cancer cell line J82. Nature of the test: In vitro cell inhibition assay (crystal violet), bladder cancer J82. The note with it: Homo sapiens, read-out: Inhibition rate on human cancer cells. It is filed as cell-based, human.
Description: as §1, §2, §3

With `COC=C(C(=O)OC)c1ccccc1COc1ccc2c(C)cc(=O)oc2c1` [Compound 28-2], the “Inhibition rate on human cancer cells” value in test [1] (H460, 5.0 μM) stood at 95%. The “Proliferation inhibitory effect on human leukemia HL-60 cell (%)” value (“Proliferation inhibitory effect … (%)” for short) in test [2] (concentration 1 μM) was found to be 6.0%; in test [2] (concentration 10 μM), 49.2%; in test [2] (concentration 100 μM), 71.3%.
As for `COC=C(C(=O)OC)c1ccccc1COc1ccc2c(C(F)(F)F)cc(=O)oc2c1` [Compound 28-7], the “Inhibition rate on human cancer cells” value in test [3] (A549, 2.5 μM) amounted to 70%; in test [3] (A549, 5.0 μM), 90%; in test [1] (H460, 2.5 μM) it was 80%; in test [1] (H460, 5.0 μM), 95%; in test [4] (H520, 2.5 μM), 80%; in test [4] (H520, 5.0 μM), 100%. Besides, the “Proliferation inhibitory effect … (%)” value in test [2] (concentration 1 μM) amounted to 42.3%; in test [2] (concentration 10 μM), 71.0%; in test [2] (concentration 100 μM), 83.9%.
Turning to `CCCc1c(C)c2ccc(OCc3ccccc3C(=COC)C(=O)OC)cc2oc1=O` [Compound 28-27], the “Inhibition rate on human cancer cells” value in test [3] (A549, 1.0 μM) was found to be 80%; in test [3] (A549, 2.5 μM), 90%; in test [3] (A549, 5.0 μM) it was 95%; in test [1] (H460, 1.0 μM), 80%; in test [1] (H460, 2.5 μM) it was 95%; in test [1] (H460, 5.0 μM) it was 95%. The “Inhibition rate on human cancer cells” value in test [4] (H520, 0.5 μM) came to 95%; in test [4] (H520, 1.0 μM), 100%; in test [4] (H520, 2.5 μM) it was 100%; in test [4] (H520, 5.0 μM) it was 100%. Also, the results for the “Proliferation inhibitory effect … (%)” value in test [2] (concentration 1 μM), in test [2] (concentration 10 μM) and in test [2] (concentration 100 μM) were 59.0%, 79.9% and 83.9%, respectively.
For `COC=C(C(=O)OC)c1ccccc1COc1ccc2c(C)c(F)c(=O)oc2c1` [Compound 28-50], the “Inhibition rate on human cancer cells” value worked out at 90% in test [3] (A549, 5.0 μM); 70% in test [1] (H460, 1.0 μM); 90% in test [1] (H460, 2.5 μM); 95% in test [1] (H460, 5.0 μM); 30% in test [4] (H520, 0.25 μM); 50% in test [4] (H520, 0.5 μM). Also, the “Inhibition rate on human cancer cells” value is on record as 60% in test [4] (H520, 1.0 μM); 80% in test [4] (H520, 2.5 μM); 100% in test [4] (H520, 5.0 μM). For the same compound, the “Proliferation inhibitory effect … (%)” value in test [2] (concentration 1 μM) is 47.1%; in test [2] (concentration 10 μM), 83.1%; in test [2] (concentration 100 μM), 84.8%.
Turning to `CCCc1c(CCC)c2ccc(OCc3ccccc3C(=COC)C(=O)OC)cc2oc1=O` [Compound 28-79], the figures for the “Proliferation inhibitory effect … (%)” value in test [2] (concentration 1 μM), in test [2] (concentration 10 μM) and in test [2] (concentration 100 μM) were 28.8%, 53.1% and 71.2%, respectively.
As to `COC=C(C(=O)OC)c1ccccc1COc1ccc2c(-c3ccc(Cl)nc3)cc(=O)oc2c1` [Compound 28-124], the “Inhibition rate on human cancer cells” value is listed as 75% in test [1] (H460, 5.0 μM) and 70% in test [4] (H520, 5.0 μM). The “Proliferation inhibitory effect … (%)” value is reported as 0.5% in test [2] (concentration 1 μM), 29.3% in test [2] (concentration 10 μM) and 27.8% in test [2] (concentration 100 μM).
As to `COC=C(C(=O)OC)c1ccccc1COc1ccc2c3c(c(=O)oc2c1)CCC3` [Compound 28-125], the “Proliferation inhibitory effect … (%)” value in test [2] (concentration 1 μM) is listed as 47.0%; in test [2] (concentration 10 μM), 73.8%; in test [2] (concentration 100 μM), 85.0%.
As for `COC=C(C(=O)OC)c1ccccc1COc1ccc2c3c(c(=O)oc2c1)CCCC3` [Compound 28-128], the “Inhibition rate on human cancer cells” value came out at 70% in test [3] (A549, 0.25 μM); 100% in test [3] (A549, 0.5 μM); 100% in test [3] (A549, 1.0 μM); 100% in test [3] (A549, 2.5 μM); 100% in test [3] (A549, 5.0 μM); 80% in test [1] (H460, 0.25 μM). In addition, the “Inhibition rate on human cancer cells” value in test [1] (H460, 0.5 μM) was 100%; in test [1] (H460, 1.0 μM), 100%; in test [1] (H460, 2.5 μM), 100%; in test [1] (H460, 5.0 μM), 100%; in test [4] (H520, 0.25 μM), 70%; in test [4] (H520, 0.5 μM), 100%. The “Inhibition rate on human cancer cells” value in test [4] (H520, 1.0 μM) is on record as 100%; in test [4] (H520, 2.5 μM) it was 100%; in test [4] (H520, 5.0 μM), 100%; in the test on colon cancer HCT8 (HCT 8, 0.25 μM), 95%; in the test on colon cancer HCT8 (HCT 8, 0.5 μM), 100%; with colon cancer HCT8 (HCT 8, 1.0 μM), 100%. For the same compound, the “Inhibition rate on human cancer cells” value in the test on colon cancer HCT8 (HCT 8, 2.5 μM) came to 100%; in the test with colon cancer HCT8 (HCT 8, 5.0 μM), 100%; in the test on colon cancer HCT116 (HCT 116, 0.25 μM) it was 95%; in the test on colon cancer HCT116 (HCT 116, 0.5 μM), 100%; in the test on colon cancer HCT116 (HCT 116, 1.0 μM), 100%; in the test with colon cancer HCT116 (HCT 116, 2.5 μM) it was 100%. Moreover, the “Inhibition rate on human cancer cells” value was 100% with colon cancer HCT116 (HCT 116, 5.0 μM); 99% in the test on colon cancer RkO (0.25 μM); 100% in the test with colon cancer RkO (0.5 μM); 100% with colon cancer RkO (1.0 μM); 100% with colon cancer RkO (2.5 μM); 100% in the test on colon cancer RkO (5.0 μM).
Regarding `COC=C(C(=O)OC)c1ccccc1COc1ccc2c3c(c(=O)oc2c1C)CCCC3` [Compound 28-129], the “Inhibition rate on human cancer cells” value in test [3] (A549, 0.25 μM) is on record as 90%; in test [3] (A549, 0.5 μM), 95%; in test [3] (A549, 1.0 μM), 100%; in test [3] (A549, 2.5 μM), 100%; in test [3] (A549, 5.0 μM), 100%; in test [1] (H460, 0.5 μM), 70%. Also, the “Inhibition rate on human cancer cells” value in test [1] (H460, 1.0 μM) was found to be 95%; in test [1] (H460, 2.5 μM), 100%; in test [1] (H460, 5.0 μM) it was 100%; in test [4] (H520, 0.25 μM) it was 85%; in test [4] (H520, 0.5 μM) it was 95%; in test [4] (H520, 1.0 μM), 100%. For the same compound, the “Inhibition rate on human cancer cells” value in test [4] (H520, 2.5 μM) worked out at 100%; in test [4] (H520, 5.0 μM), 100%; with colon cancer HCT8 (HCT 8, 0.25 μM), 80%; with colon cancer HCT8 (HCT 8, 0.5 μM), 95%; in the test with colon cancer HCT8 (HCT 8, 1.0 μM), 100%; with colon cancer HCT8 (HCT 8, 2.5 μM) it was 100%. Besides, the “Inhibition rate on human cancer cells” value in the test on colon cancer HCT8 (HCT 8, 5.0 μM) is 100%; in the test with colon cancer HCT116 (HCT 116, 0.25 μM), 90%; in the test with colon cancer HCT116 (HCT 116, 0.5 μM) it was 95%; in the test on colon cancer HCT116 (HCT 116, 1.0 μM), 100%; in the test with colon cancer HCT116 (HCT 116, 2.5 μM) it was 100%; with colon cancer HCT116 (HCT 116, 5.0 μM), 100%. Also, the “Inhibition rate on human cancer cells” value in the test with colon cancer RkO (0.25 μM) is given as 85%; with colon cancer RkO (0.5 μM), 99%; with colon cancer RkO (1.0 μM), 100%; with colon cancer RkO (2.5 μM), 100%; in the test with colon cancer RkO (5.0 μM), 100%.
Regarding `CO/C=C(/C(=O)OC)c1ccccc1COc1ccc(C(F)(F)F)cc1Cl` [compound B, flufenoxystrobin], the inhibition at 0.25 µM in test [5] (J82, 0.25 μM) is 0%. Further, the inhibition at 0.5 µM in test [5] (J82, 0.5 μM) came to 50%. Also, the inhibition at 1 µM in test [5] (J82, 1.0 μM) was determined as 90%. The inhibition at 2.5 µM in test [5] (J82, 2.5 μM) was determined as 95%. Further, in test [5] (J82, 5.0 μM), the inhibition at 5 µM amounted to 100%.
